Experimental data taken from publication PMC11956017, “Design of Benzyl-triazolopyrimidine-Based NADPH Oxidase Inhibitors Leads to the Discovery of a Potent Dual Covalent NOX2/MAOB Inhibitor” (Journal of Medicinal Chemistry, 2025).

How the values were obtained:
Assay type in all cases: biochemical
human NOX4 = biological target: T1, human NOX4 (Homo sapiens, UniProt Q9NPH5); test: Human NOX4 isolated membranes, Amplex Red/horseradish peroxidase coupled assay; conditions: membrane-embedded; 40 μM NADPH; read-out: IC50 on human NOXs, NOX4 (AMPLEX RED)
T1 construct: expressed in transfected cells; host or cells: HEK293 F cells, transient transfection (pTT22 and pYD7 vectors); isolated membranes
T1 sequence (Q9NPH5 1-578): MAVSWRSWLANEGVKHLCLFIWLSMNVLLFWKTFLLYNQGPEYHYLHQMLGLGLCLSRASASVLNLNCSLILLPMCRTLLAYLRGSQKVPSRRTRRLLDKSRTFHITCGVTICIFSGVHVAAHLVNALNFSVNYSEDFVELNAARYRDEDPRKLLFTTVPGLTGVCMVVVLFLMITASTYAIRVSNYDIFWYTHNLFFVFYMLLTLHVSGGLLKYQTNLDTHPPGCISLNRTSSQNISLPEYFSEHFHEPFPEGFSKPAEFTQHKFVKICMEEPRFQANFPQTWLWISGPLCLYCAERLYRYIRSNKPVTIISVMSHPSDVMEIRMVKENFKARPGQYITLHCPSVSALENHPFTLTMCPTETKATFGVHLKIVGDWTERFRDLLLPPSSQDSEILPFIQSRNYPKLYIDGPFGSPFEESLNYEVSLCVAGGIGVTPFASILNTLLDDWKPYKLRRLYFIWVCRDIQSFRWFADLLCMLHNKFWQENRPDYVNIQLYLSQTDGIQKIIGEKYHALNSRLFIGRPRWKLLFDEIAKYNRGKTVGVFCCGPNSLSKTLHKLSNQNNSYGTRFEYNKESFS
T1 sequence (P13498 1-195 partner): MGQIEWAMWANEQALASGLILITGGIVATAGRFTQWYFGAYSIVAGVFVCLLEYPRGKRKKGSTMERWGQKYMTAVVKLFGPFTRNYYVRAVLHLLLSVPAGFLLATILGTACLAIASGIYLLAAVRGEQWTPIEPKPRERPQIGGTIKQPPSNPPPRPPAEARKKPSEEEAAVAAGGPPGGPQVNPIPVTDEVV
Method: (§1) Activity assays for IC50 determinations were performed as previously described[40],[42] with modifications for covalent inhibitors. […] The estimated final protein concentrations based on the heme’s absorbance (ε414 nm = 131,000 M^–1 cm^–1) were 10–20 nM. Compounds were incubated for 1 h at 25 °C at varying concentrations, and reactions were initiated with 40 μM NADPH. Fluorescence was measured using a ClarioStar plate reader (excitation 572 nm/emission 583 nm).

NOX2 = NOX2 (Homo sapiens, UniProt P04839); test: Human NOX2 isolated membranes, MCLA assay; parameters: NOX2 was expressed as native protein in X-CGD PLB-985 cells transduced with the RD114 pseudotyped MFGS-NOX2 vector; expressed in transfected cells; host or cells: X-CGD PLB-985 cells transduced with MFGS-NOX2; isolated membranes; Cytosolic proteins made in E. coli; conditions: for IC50: membrane-embedded, 240 μM NADPH, read-out: IC50 on human NOXs, NOX2 (MCLA)
Method: IC50 determinations were performed as described, with the same aforementioned modifications for covalent inhibition. Briefly, 20 μg of NOX2-p22^phox membranes was added to a reaction mix with a 65 mM sodium phosphate buffer (pH 7.0), 0.5 μM FAD, 130 μM LiDS, 160 nM p67^phox, p47^phox, Rac1 Q61L, and 1 μM MCLA or 200 μM bovine cytochrome c. The estimated final protein concentration based on the heme’s absorbance was 60 nM. Compounds were incubated for 1 h at 25 °C, at varying concentrations. The reaction started by adding 240 μM NADPH, and measurements were taken by using a GloMax plate reader (Promega; MCLA) or a Cary 100 UV–vis spectrophotometer (Varian; cytochrome c).

Purified human NOX2 = biological target: T2, Purified human NOX2 (Homo sapiens, UniProt P04839); test: Purified human NOX2-p22phox, NADPH depletion assay; conditions: for IC50: 200 nM NOX2, 240 μM NADPH, activated
T2 construct: NOX2 was expressed as native protein in X-CGD PLB-985 cells transduced with the RD114 pseudotyped MFGS-NOX2 vector; made in house; host or cells: X-CGD PLB-985 cells transduced with MFGS-NOX2; Cytosolic proteins made in E. coli
Method: The NADPH depletion assay on human NOX2 for IC50 determinations was performed as described[40],[42] with variations for covalent inhibition. Briefly, the catalytic activity was measured by monitoring the absorbance at 340 nm with a Cary 100 UV–vis spectrophotometer (Varian). A 200 nM purified NOX2-p22^phox heterodimer was added to a 200 μL reaction mix containing a 65 mM sodium phosphate buffer (pH 7.0), 50 μM FAD, 130 μM LiDS, and 1 μM recombinant p67^phox, p47^phox, and Rac1 Q61L. Inhibitors were added at varying concentrations (7 nM–200 μM) and incubated for 1 h at 25 °C. The reaction was started by the addition of 240 μM NADPH.

human NOX5 = biological target: T3, human NOX5 (Homo sapiens, UniProt Q96PH1); test: Human NOX5 isolated membranes, Amplex Red/horseradish peroxidase coupled assay; conditions: membrane-embedded, 40 μM NADPH; for IC50: read-out: IC50 on human NOXs, NOX5 (AMPLEX RED)
T3 construct: expressed in transfected cells; host or cells: HEK293 F cells, transient transfection (pEG BacMam vector); isolated membranes
T3 sequence (Q96PH1 1-719 isoform Q96PH1-4): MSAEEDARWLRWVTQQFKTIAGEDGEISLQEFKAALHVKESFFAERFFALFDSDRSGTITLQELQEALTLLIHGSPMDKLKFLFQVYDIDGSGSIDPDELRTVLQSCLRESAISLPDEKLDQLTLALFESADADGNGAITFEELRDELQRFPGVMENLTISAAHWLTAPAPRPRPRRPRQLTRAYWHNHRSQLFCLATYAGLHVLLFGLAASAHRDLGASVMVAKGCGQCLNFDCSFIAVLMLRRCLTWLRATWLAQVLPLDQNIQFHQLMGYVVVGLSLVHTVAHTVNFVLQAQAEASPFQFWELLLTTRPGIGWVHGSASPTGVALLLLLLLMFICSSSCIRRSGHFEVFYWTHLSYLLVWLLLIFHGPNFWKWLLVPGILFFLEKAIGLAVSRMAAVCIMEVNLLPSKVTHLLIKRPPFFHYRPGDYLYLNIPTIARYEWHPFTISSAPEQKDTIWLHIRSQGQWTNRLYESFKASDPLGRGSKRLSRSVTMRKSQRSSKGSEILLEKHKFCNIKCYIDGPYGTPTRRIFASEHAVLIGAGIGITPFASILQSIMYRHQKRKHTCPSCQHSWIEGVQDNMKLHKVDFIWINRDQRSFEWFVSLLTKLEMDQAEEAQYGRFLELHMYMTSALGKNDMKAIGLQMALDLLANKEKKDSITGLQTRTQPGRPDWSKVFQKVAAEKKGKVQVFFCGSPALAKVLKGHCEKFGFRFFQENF
Method: as §1

Row | SMILES | IC50 (human NOX4) [µM] | IC50 (NOX2) [µM] | IC50 (Purified human NOX2) [µM] | IC50 (human NOX5) [µM] | IC50 on human NOXs, NOX5 (AMPLEX RED) (human NOX5) | potency against NOX2 relative to VAS2870 (more powerful) (NOX2; NOX2 membranes) [fold] | potency on purified NOX2 relative to VAS2870 (more potent) (Purified human NOX2; purified NOX2)
1 | CCCNC(=O)c1ccc(Cn2nnc3c(Sc4nc5ccccc5o4)ncnc32)cc1 [Compound 8a, (4-((7-Benzo[d]oxazol-2-yl-thio)-3H-[1,2,3]triazole[4,5-d]pyrimidin-3-yl)methyl)-N-(propyl)benzamide] | 21.8 ± 1.1 | 2.8 ± 0.05 | 3.3 ± 0.06 | 6.5 ± 0.6 | – | – | –
2 | C#CCNC(=O)c1ccc(Cn2nnc3c(Sc4nc5ccccc5o4)ncnc32)cc1 [Compound 8b, (4-((7-Benzo[d]oxazol-2-yl-thio)-3H-[1,2,3]triazole[4,5-d]pyrimidin-3-yl)methyl)-N-(prop-2-in-1-yl)benzamide] | 57.9 ± 7 | 17.3 ± 2.6 | 20.1 ± 0.5 | > 100 | inactive | – | –
3 | C#CCN(C)Cc1ccc(Cn2nnc3c(Sc4nc5ccccc5o4)ncnc32)cc1 [Compound 9a, N-(4-((7-(Benzo[d]oxazol-2-ylthio)-3H-[1,2,3]triazolo[4,5-d]pyrimidin-3-yl)methyl)benzyl)-N-methylprop-2-yn-1-amine] | 42 ± 16 | 0.567 ± 0.2 | 0.155 ± 0.03 | 5.2 ± 0.1 | – | 2 | over 20 fold
